Patent US20220235047A1, “A MEDICAMENT FOR TREATING MYCOBACTERIAL INFECTION CHARACTERIZED BY COMBINING A CYTOCHROME bc1 INHIBITOR WITH CLARITHROMYCIN OR AZITHROMYCIN AND CLOFAZIMINE” (priority 2019, published 2022)

What was measured:
[1] = tested on: Mycobacterium avium ATCC700898; experiment: Test2: mouse lung infection model, CFU in lungs after 2 weeks of treatment; type: in vivo; conditions: day 15, CAM 200 mg/kg
Description: There were 6 study groups and 4 mice per group
(§1) Almost protocol was the same as the protocol described in Test1 above.

[2] = tested on: Mycobacterium avium ATCC700898; experiment: Test1: mouse lung infection model, CFU in lungs after 2 weeks of treatment
Description: There were 9 study groups and 4 mice per group
All treatments were evaluated on Mycobacterium avium ATCC700898.
All formulations prepared in 20% Tween20, 80% aq. (20% HP-ß-CD and 0. 6% HPMC, pH3).
All formulations were solutions and prepared every day.
Time Schedule, after mice were infected.
The mice were infected with Mycobacterium avium strain.
When 0.07 mL of this dilution is injected, each mouse receives 10^6 bacteria.
36 female 8-weeks old BALB/c mice, Charles River, were inoculated intranasally with 0.07 mL of a bacterial suspension containing ±10^6 colony forming units (CFU). […]
The effectiveness of treatments was assessed by counting the numbers of colony-forming-units (CFU) in the lungs. • 1.8 mL Mueller Hinton Broth (MHB) was added to each homogenization tube containing lung. • Lungs were homogenized, and four 10-fold serial dilutions were made in MHB. • From each individual lung, 100 μL of the undiluted suspension and four serial 10-fold dilutions, were plated on 7H10 agar plates. • CFU's were counted after incubation at 35° C. for 2 weeks. • The bactericidal effect of the treatment was defined as a significant decrease of the mean number of CFU in the treated group compared to pre-treatment value.

[3] = tested on: cytochrome P-450 (CYP) 3A; conditions: cited from earlier work
cytochrome bc1 = cytochrome bc1 (Mycobacterium tuberculosis, UniProt P9WP37); conditions: described in WO2017/049321 (HT-21) and WO2011/113606 (Q203); cited from earlier work
TB = conditions: in vitro and in vivo mouse model; cited from earlier work
[4] = tested on: Mycobacterium avium ATCC700898; experiment: Test3: mouse lung infection model, CFU in lungs after 2 weeks of treatment; type: in vivo; conditions: day 15, AZM 10 mg/kg, RFP 10 mg/kg, ETB 100 mg/kg, CFZ 20 mg/kg, Q203 5 mg/kg
Description: as §1

M. avium = conditions: in vitro; cited from earlier work
M. intracellulare = conditions: in vitro, majority of M. intracellulare isolates; cited from earlier work
MAC = conditions: pulmonary disease patients infected by MAC; relapse still occurred; cited from earlier work

cytochrome bc1, sequence (P9WP37 whole entry, looked up): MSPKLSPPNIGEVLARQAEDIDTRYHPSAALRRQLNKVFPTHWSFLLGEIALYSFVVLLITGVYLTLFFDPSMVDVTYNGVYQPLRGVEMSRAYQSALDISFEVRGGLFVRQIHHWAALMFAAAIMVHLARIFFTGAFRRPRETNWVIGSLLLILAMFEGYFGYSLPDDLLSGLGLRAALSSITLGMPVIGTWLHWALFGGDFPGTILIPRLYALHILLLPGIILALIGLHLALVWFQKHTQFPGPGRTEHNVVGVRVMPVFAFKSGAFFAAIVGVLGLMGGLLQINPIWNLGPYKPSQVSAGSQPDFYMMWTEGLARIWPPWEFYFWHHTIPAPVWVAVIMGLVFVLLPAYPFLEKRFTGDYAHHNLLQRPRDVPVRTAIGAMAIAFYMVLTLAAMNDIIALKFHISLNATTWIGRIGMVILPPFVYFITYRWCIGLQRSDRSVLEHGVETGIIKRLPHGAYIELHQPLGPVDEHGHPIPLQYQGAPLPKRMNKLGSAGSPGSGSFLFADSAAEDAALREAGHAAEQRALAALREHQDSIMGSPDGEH

Which “drop in mean log 10 CFU from Control 2” value [1] does the source give for CC[C@H]1OC(=O)[C@H](C)[C@@H](O[C@H]2C[C@@](C)(OC)[C@@H](O)[C@H](C)O2)[C@H](C)[C@@H](O[C@@H]2O[C@H](C)C[C@H](N(C)C)[C@H]2O)[C@](C)(OC)C[C@@H](C)C(=O)[C@H](C)[C@@H](O)[C@]1(C)O [CAM, Clarithromycin] here?
Its value is 1.0.

What about the “Mean Log10 (CFU in lungs)” value ([1]; CFZ 20 mg/kg, HT-21 5 mg/kg or Q203 5 mg/kg) of the same compound?
The value was 4.85.

And the “Mean Log10 (CFU in lungs)” value ([2]; BALB/c mice, day 15, oral once daily, 10 doses, CAM 200 mg/kg, RFP 20 mg/kg, ETB 100 mg/kg, CFZ 20 mg/kg)?
Its value is 3.98.

And the “inhibition of CYP3A” value [3]?
The value was “inhibits”.

For CCc1nc2cc(C)ccn2c1C(=O)NCc1ccc(N2CCC(c3ccc(OC(F)(F)F)cc3)CC2)cc1 [Q203], which “cytochrome bc1 inhibitory activity” value (cytochrome bc1) is on record?
Its value is “excellent cytochrome bc1 inhibitory activity”.

And the “growth of TB” value (TB)?
The value was “inhibited the growth of TB”.

For CC[C@H]1OC(=O)[C@H](C)[C@@H](O[C@H]2C[C@@](C)(OC)[C@@H](O)[C@H](C)O2)[C@H](C)[C@@H](O[C@@H]2O[C@H](C)C[C@H](N(C)C)[C@H]2O)[C@](C)(O)C[C@@H](C)CN(C)[C@H](C)[C@@H](O)[C@]1(C)O [AZM, Azithromycin], which “Mean Log10 (CFU in lungs)” value [4] is on record?
Its value is 6.19.

What about the “inhibition of CYP3A” value [3] of the same compound?
The value was “does not inhibit”.

With Cc1ccn2c(C(=O)NCc3ccc(N4CCCN(c5ccc(C(F)(F)F)cc5)CC4)c(F)c3)c(C)nc2c1 [HT-21] as the compound, how does the “cytochrome bc1 inhibitory activity” value (cytochrome bc1) read?
Its value is “excellent cytochrome bc1 inhibitory activity”.

What about the “efficacy (CFU in lungs), in words” value ([2]; HT-21 200 mg/kg added to clarithromycin+clofazimine, cut off 2.00) of the same compound?
The value was “the effect reached plateau”.

Which MIC (M. avium) does the source give for CC(C)/N=c1\cc2n(-c3ccc(Cl)cc3)c3ccccc3nc-2cc1Nc1ccc(Cl)cc1 [CFZ, Clofazimine] here?
Its MIC is 1 to 4 µg/mL.

What about the MIC (M. intracellulare) of the same compound?
Its MIC is less than 1 µg/mL.

What about the “proportion of patients converted to negative cultures” value (MAC) of the same compound?
The value was “significantly greater proportion”.
